What was measured:
[1] = test system: tumour infiltrating lymphocytes (TIL); experiment: [Cr51]-release assay: lysis of autologous tumour cells by pre-treated TIL; assay type: cell-based, human
Protocol: (§1) Melanoma patient derived TIL and CD19 directed CAR T cells were generated as previously described (Magalhaes et al., 2018; Lövgren et al., 2020).
(§2) Lymphocytes were pre-treated for 18 h with Auranofin (AUF, with the concentration 1 μg/mL for NK cells and 0.5 μg/mL for TIL, if not indicated differently), DL-Sulforaphane (SUL) or Dimethyl Fumarate (DMF) (all Sigma-Aldrich) at indicated concentrations.
(§3) For Nrf2 inhibition, NK cells were treated with 50 μM ML-385 (Sigma-Aldrich) in parallel. For H2O2 treatment, lymphocyte cells were washed and resuspended to 1×10^6 cells/mL in medium and exposed to indicated H2O2 (Sigma-Aldrich) concentration for 1 h at 37° C. Cells were washed with medium and then used for further experiments. For monocyte experiments, autologous NK cell-monocytes or TIL-monocytes were used. NK cells/TIL were isolated and pre-treated with 0.5 μg/mL AUF, as described above, and co-cultured with unstimulated at the ratio, 1:2 M:NK, or stimulated monocytes at the ratio, 1:1 M:NK, if not indicated otherwise. Stimulated monocytes were activated with 100 ng/ml PMA for 1 min, washed and added at indicated ratio, the number of NK cell/TIL was kept constant. As control, H2O2 was used at indicated concentration. Cells were co-cultured for 2 h and then effector cells were stained for intracellular ROS (see flow cytometry) or used as effector cells in Cr^51 release assay (E:T ratio 10:1).
(§4) For cytotoxic assay, a standard 4 h [Cr^51]-release assay was used. Briefly, tumour cells were harvested and labeled with 51Cr (PerkinElmer) and used as target cells. Effector cells, NK cells and T cells, were co-cultured in 96-well V-bottom plate with indicated tumour cells at the stated effector target ratio (E:T). The supernatant was collected onto LUMA plates (Perkin-Elmer) and radioactivity/tumour cell lysis was detected by MicroBeta2 (Perkin Elmer). Target cell killing measured by % specific lysis and calculated using the formula: ((experimental release-spontaneous release)/(maximum release-spontaneous release))*100.

[2] = test system: ANRU TIL; experiment: Viability of pre-treated ANRU TIL after H2O2 exposure (flow cytometry); assay type: cell-based, human; conditions: 24 h co-culture with ANRU tumour cells, alive CD3+ T cells
Protocol: as §2
as §3, with “Cells were co-cultured for 2 h and then effector cells were stained for intracellular ROS (see flow cytometry) or used as effector cells in Cr^51 release assay (E:T ratio 10:1).” left out
All antibodies (see Table 1) and FACS reagents were used according to manufactures recommendation, if not stated otherwise. […] Samples were fixed with 2% PFA (Thermo scientific) for 15 min before acquired on a NovoCyte (ACEA Biosciences) and analysed using FlowJo Software (TreeStar).

[3] = test system: tumour infiltrating lymphocytes (TIL); experiment: Intracellular ROS levels in TIL (CM-H2DCFDA, flow cytometry); assay type: cell-based, human
Protocol: as §3
For TIL, T cells were pre-incubated with 10 μM CM-H2DCFDA (Thermo Fisher Scientific) solution in RPMI for 30 min at 37° C. prior to H2O2 treatment and then stained with anti-CD3, anti-CD4 and anti-CD8.

[4] = test system: NK cells; experiment: NK cells co-cultured with PMA-activated autologous monocytes: intracellular ROS and K562 lysis; assay type: cell-based, human
Protocol: as §3
Monocytes were stimulated with 100 ng/ml PMA for 1 min and washed with HBSS (Gibco). Cells were resuspended in HBSS 5% FBS and added to a 96-well Optiplate (Perkin Elmer) containing HBSS 5% FBS and Luminol (56 μM; Sigma). Luminescence was measured immediately using a EnSpire plate reader (Perkin Elmer).
For detection of intracellular ROS levels, for NK cells CellROX™ Deep Red Reagent (Invitrogen) were used. Briefly, NK cells were stained with 2.5 μM CellROX solution in RPMI for 30 min at 37° C. and then stained for flow cytometry with anti-CD56 and anti-CD3 (both Biolegend).
as §4

[5] = test system: CD8+ T cells; experiment: IFNγ release by expanded healthy donor CD8+ T cells by pre-treatment time; assay type: cell-based, human
[6] = test system: CD19 directed CAR T cells; experiment: CD19-directed CAR T-cell lysis of RAJI and N6/ADR tumour cells after H2O2; assay type: cell-based, human; conditions: H2O2 at different concentrations, E:T 15:1, vs control CAR T cells
Protocol: as §1
as §3, with “Cells were co-cultured for 2 h and then effector cells were stained for intracellular ROS (see flow cytometry) or used as effector cells in Cr^51 release assay (E:T ratio 10:1).” left out
For cytotoxic assay, a standard 4 h [Cr^51]-release assay was used. […] The supernatant was collected onto LUMA plates (Perkin-Elmer) and radioactivity/tumour cell lysis was detected by MicroBeta2 (Perkin Elmer). Target cell killing measured by % specific lysis and calculated using the formula: ((experimental release-spontaneous release)/(maximum release-spontaneous release))*100.

[7] = test system: ANRU TIL; experiment: TIL infiltration into ANRU spheroids (flow cytometry, confocal microscopy); assay type: cell-based, human; conditions: 48 h co-culture
From the text: To study TIL infiltration into spheroids, eight spheroids of each condition were pooled and carefully washed twice with PBS, dissociated with trypsin and then stained with anti-CD3, CD4 and anti-CD8. The supernatant was collected to measure the non-infiltrated fraction.
For confocal microscopy, spheroids were fixed with 4% PFA (Thermo Scientific). Spheroids stained with anti-CD8a followed by the secondary antibody (goat-anti-mouse IgG-AF647, Biolegend) and Hoechst 33342 dye (Invitrogen). Spheroids were cleared with 88% glycerol (Sigma) overnight, transferred to 8-well u-slides (Ibidi) and imaged with the Zeiss LSM800 confocal microscope. Spheroids were also analyzed for T cell infiltration using flow cytometry, see above.

[8] = test system: tumour infiltrating lymphocytes (TIL); experiment: IFNγ release by pre-treated TIL on autologous tumour cells after H2O2 treatment; assay type: cell-based, human; conditions: KADA and ANRU melanoma TIL, E:T 4:1, vs control group
Protocol: ., 2020). […] For Nrf2 inhibition, NK cells were treated with 50 μM ML-385 (Sigma-Aldrich) in parallel. […] Cells were washed with medium and then used for further experiments. For monocyte experiments, autologous NK cell-monocytes or TIL-monocytes were used. […] Stimulated monocytes were activated with 100 ng/ml PMA for 1 min, washed and added at indicated ratio, the number of NK cell/TIL was kept constant. […] For cytokine release assay, NK cells and TIL were cultured with indicated tumour cells at the effector target ratio 4:1 (E:T) for 24 h in U-bottom plates. IFNγ secretion was measured using human IFN-γ ELISA development kit (Mabtech) following the manufacturer's instructions.

[9] = test system: cancer cells; conditions: high doses (Stafford et al., 2018; Rigobello et al., 2008); cited from earlier work

CC(=O)OC[C@H]1O[C@@H]([S-])[C@H](OC(C)=O)[C@@H](OC(C)=O)[C@@H]1OC(C)=O.CCP(CC)CC.[Au+] [AUF, Auranofin]
Lysis of autologous tumour cells by TIL after AUF removal ([1]; 0-72 h after AUF removal, H2O2): increased lysis of autologous tumour cells | Specific lysis of autologous tumour cells by TIL ([1]; KADA, also in the absence of ROS): clearly higher | Time after AUF withdrawal until which increased lysis by TIL lasted ([1]; highest AUF concentration): 72 h | Viability of ANRU TIL after exposure to H2O2 [2]: improved viability | Effect on intracellular ROS levels in TIL ([3]; 72 h after AUF removal): effects remained | Fluorescence correlating to intracellular ROS levels in TIL ([3]; KADA and BEHA TIL): lowered | Protection of NK cells from monocyte-derived ROS [4]: protects NK cells from monocyte-derived ROS | Intracellular ROS in NK cells co-cultured with activated monocytes ([4]; 0.5 μg/mL AUF, 2 h co-culture, vs controls): significantly lower levels of intracellular ROS | Killing of K562 target cells by NK cells co-cultured with activated monocytes ([4]; also at the highest monocyte to NK cell ratio): significantly higher efficiency | Pre-treatment time after which a protective effect was observed in T cells [5]: 8 to 12 h | Killing of CD19+ target cells by CD19 directed CAR T cells [6]: significantly increased killing | Killing of CD19+ target cells by CD19 directed CAR T cells ([6]; listed as auranofin): improved tumour killing | Capacity of TIL to infiltrate the spheroid [7]: no difference | Recognition of autologous tumour cells by TIL (IFNγ production) upon exposure to H2O2 [8]: increased recognition of their autologous tumour cells | Toxicity / cell death in cancer cells [9]: toxic and induce cell death

From US20240277767A1, “METHODS AND USES” (PROLEUKOCYTE AB, priority 2021, published 2024)
